{"source": "patent EP2739646B1", "about": "“COMPREHENSIVE BUFFER SYSTEM FOR RENATURING HUMAN PROINSULIN OR PROINSULIN DERIVATIVES” (Hermann, Stefan, priority 2011, dated 2012)", "origin": "cited, not measured here", "key": {"[1]": {"assay": "not given", "remark": "listed apart in the source"}}, "note": "Where two headings read alike, the source gives them in different places.", "data": [{"compound": "C[C@H](N)C(=O)O", "note": "[alanine]", "values": [{"measurement": "water solubility", "setting": "at 25°C", "result": 16.5, "unit": "g/100g water"}]}, {"compound": "N=C(N)NCCC[C@H](N)C(=O)O", "note": "[arginine]", "values": [{"measurement": "pKa", "setting": "[1]; first value listed", "result": 2.01}, {"measurement": "pKa", "setting": "[1]; second value listed", "result": 9.4}]}, {"compound": "N[C@@H](CS)C(=O)O", "note": "[cysteine]", "values": [{"measurement": "water solubility", "setting": "at 25°C", "result": "> 50", "unit": "g/100g water"}, {"measurement": "pKa", "setting": "[1]; first value listed", "result": 2.05}, {"measurement": "pKa", "setting": "[1]; second value listed", "result": 10.25}, {"measurement": "pKa", "setting": "[1]; third value listed", "result": 8.00}]}, {"compound": "O=C(O)CCCC(=O)O", "note": "[glutaric acid]", "values": [{"measurement": "water solubility", "setting": "temperature not given", "result": 64.0, "unit": "g/100ml"}]}, {"compound": "O=C(O)[C@@H]1CCCN1", "note": "[proline]", "values": [{"measurement": "pKa", "setting": "[1]; first value listed", "result": 2.0}, {"measurement": "pKa", "setting": "[1]; second value listed", "result": 10.6}]}, {"compound": "CCCCC(=O)O", "note": "[valeric acid]", "values": [{"measurement": "water solubility", "setting": "temperature not given", "result": 4.97, "unit": "g/100ml"}]}]}
